In patent US12157738B2, “Macrocyclic inhibitors of ALK, TRKA, TRKB, and ROS1” (DANA-FARBER CANCER INSTITUTE, INC., priority 2018, dated 2024):

How the values were obtained:
ALK = target: T1, ALK (Homo sapiens, UniProt Q9UM73); assay: Invitrogen Z'-lyte or LanthaScreen kinase IC50 assay; format: biochemical
T1 construct: similar enzymatic potency was observed against full length ALK and ALK mutants; purchased Invitrogen
From the text: (§1) The IC50 values were generated from Invitrogen™'s Z'-lytet™ or LanthaScreen™ assays.

TRK3 = target: T2, TRK3 (Homo sapiens, UniProt Q16288); assay: as above; format: biochemical
T2 construct: purchased Invitrogen
T2 sequence (Q16288 32-839): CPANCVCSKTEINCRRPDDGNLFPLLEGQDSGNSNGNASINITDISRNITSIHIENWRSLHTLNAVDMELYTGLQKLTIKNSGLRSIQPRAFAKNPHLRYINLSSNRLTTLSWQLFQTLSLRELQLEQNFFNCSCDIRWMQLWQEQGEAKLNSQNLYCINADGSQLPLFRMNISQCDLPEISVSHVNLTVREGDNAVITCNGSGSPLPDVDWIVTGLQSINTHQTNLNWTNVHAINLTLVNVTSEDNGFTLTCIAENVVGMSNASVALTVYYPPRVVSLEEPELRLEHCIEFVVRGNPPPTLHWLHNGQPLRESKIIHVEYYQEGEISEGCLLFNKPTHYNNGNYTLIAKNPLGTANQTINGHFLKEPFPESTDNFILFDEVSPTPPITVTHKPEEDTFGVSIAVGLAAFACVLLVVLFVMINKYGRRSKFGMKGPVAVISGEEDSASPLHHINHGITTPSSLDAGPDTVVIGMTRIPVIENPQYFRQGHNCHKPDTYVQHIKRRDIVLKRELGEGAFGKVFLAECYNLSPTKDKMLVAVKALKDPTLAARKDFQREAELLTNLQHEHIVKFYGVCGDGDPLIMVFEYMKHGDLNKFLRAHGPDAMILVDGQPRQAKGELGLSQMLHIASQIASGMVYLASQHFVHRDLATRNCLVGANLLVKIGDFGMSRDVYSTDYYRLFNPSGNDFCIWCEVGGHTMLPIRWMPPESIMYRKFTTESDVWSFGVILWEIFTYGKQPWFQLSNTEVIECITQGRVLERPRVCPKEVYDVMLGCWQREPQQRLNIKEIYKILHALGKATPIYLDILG
From the text: as §1

TRK2 = target: T3, TRK2 (Homo sapiens, UniProt Q16620); assay: as above; format: biochemical
T3 construct: purchased Invitrogen
T3 sequence (Q16620 32-822): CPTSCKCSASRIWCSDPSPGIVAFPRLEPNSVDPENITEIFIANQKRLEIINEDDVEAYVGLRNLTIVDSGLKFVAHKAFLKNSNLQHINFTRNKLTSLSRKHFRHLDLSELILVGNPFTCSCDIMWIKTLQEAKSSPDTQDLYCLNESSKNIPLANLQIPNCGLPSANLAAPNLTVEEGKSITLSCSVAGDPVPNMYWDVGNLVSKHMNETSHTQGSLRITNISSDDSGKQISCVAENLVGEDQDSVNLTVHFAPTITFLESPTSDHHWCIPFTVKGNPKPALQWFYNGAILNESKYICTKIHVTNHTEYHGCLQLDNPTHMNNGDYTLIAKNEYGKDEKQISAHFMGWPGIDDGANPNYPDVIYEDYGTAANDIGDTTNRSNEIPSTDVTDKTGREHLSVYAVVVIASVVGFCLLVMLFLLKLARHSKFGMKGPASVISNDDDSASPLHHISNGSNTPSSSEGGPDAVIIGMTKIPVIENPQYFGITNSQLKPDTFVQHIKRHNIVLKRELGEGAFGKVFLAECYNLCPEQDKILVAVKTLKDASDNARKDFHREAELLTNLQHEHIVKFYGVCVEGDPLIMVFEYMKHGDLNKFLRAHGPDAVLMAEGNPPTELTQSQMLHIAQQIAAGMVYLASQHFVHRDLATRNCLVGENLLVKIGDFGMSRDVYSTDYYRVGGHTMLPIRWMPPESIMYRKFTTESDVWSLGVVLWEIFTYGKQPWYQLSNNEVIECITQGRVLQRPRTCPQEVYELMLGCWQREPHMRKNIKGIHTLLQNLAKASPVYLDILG
From the text: as §1

ALK L1196M = target: T4, ALK L1196M (Homo sapiens, UniProt Q9UM73, L1196M); assay: as above; format: biochemical
T4 construct: purchased Invitrogen
From the text: as §1

ROS1 = target: T5, ROS1 (Homo sapiens, UniProt P08922); assay: as above; format: biochemical
T5 construct: purchased Invitrogen
T5 sequence (P08922 28-2347): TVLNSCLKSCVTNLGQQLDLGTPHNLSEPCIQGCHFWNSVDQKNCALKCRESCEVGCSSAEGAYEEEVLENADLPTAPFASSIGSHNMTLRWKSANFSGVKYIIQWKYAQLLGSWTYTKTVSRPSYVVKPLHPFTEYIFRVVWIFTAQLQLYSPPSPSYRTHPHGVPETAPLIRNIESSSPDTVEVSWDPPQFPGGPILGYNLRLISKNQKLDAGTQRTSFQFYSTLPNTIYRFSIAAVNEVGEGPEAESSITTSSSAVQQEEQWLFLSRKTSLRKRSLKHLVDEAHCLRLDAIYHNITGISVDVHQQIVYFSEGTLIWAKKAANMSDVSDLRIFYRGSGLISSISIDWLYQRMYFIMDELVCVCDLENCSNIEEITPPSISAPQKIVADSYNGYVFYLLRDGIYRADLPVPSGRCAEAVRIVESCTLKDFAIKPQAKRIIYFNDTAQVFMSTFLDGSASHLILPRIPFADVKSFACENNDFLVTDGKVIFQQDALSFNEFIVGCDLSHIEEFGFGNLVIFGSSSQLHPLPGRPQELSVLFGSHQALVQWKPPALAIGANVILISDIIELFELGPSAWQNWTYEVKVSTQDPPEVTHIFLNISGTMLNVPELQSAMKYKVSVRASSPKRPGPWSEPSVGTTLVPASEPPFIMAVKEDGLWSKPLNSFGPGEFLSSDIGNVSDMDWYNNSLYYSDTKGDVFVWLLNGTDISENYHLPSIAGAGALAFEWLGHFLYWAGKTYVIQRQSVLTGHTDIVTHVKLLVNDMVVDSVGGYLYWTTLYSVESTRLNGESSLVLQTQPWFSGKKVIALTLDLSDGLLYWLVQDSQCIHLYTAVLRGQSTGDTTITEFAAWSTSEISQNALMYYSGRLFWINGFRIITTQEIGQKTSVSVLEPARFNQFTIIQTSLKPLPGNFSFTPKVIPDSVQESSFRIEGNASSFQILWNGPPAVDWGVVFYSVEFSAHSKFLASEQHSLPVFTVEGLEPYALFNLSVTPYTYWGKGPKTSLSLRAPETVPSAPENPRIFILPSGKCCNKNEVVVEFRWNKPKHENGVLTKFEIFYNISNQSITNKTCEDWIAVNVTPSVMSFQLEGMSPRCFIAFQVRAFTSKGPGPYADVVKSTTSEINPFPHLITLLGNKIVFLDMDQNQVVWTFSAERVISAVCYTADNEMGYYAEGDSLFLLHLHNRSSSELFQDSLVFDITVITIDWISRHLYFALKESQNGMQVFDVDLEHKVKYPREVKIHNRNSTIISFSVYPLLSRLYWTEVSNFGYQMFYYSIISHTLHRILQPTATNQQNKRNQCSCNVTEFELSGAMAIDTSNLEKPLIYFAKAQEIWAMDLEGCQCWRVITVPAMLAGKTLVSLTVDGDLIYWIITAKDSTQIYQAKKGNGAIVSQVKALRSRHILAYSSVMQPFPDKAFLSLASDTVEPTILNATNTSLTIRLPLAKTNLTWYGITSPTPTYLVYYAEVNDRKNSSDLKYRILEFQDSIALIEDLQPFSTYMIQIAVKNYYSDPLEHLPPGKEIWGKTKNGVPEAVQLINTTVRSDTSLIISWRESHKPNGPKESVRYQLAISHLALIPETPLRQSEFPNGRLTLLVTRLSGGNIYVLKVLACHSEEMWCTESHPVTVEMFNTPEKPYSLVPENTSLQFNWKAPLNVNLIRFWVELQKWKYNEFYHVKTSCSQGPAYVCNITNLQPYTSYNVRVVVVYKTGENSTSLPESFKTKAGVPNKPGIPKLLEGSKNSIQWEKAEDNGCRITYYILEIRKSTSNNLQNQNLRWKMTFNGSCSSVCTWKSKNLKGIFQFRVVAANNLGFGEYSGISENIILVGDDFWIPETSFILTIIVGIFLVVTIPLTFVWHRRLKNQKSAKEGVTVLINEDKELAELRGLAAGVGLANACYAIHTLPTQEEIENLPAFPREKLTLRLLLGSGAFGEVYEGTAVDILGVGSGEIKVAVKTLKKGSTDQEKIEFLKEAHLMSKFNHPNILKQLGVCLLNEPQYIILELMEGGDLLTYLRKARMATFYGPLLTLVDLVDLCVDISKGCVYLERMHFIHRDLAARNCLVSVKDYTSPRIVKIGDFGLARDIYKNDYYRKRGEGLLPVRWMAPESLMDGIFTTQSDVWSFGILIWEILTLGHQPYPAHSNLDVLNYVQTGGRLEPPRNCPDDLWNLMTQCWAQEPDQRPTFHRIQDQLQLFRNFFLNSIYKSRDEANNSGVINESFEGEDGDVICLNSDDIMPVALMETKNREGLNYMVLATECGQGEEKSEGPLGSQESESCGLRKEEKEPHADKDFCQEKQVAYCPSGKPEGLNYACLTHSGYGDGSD
From the text: as §1

TRK1 = target: T6, TRK1 (Homo sapiens, UniProt P04629); assay: as above; format: biochemical
T6 construct: purchased Invitrogen
T6 sequence (P04629 33-796): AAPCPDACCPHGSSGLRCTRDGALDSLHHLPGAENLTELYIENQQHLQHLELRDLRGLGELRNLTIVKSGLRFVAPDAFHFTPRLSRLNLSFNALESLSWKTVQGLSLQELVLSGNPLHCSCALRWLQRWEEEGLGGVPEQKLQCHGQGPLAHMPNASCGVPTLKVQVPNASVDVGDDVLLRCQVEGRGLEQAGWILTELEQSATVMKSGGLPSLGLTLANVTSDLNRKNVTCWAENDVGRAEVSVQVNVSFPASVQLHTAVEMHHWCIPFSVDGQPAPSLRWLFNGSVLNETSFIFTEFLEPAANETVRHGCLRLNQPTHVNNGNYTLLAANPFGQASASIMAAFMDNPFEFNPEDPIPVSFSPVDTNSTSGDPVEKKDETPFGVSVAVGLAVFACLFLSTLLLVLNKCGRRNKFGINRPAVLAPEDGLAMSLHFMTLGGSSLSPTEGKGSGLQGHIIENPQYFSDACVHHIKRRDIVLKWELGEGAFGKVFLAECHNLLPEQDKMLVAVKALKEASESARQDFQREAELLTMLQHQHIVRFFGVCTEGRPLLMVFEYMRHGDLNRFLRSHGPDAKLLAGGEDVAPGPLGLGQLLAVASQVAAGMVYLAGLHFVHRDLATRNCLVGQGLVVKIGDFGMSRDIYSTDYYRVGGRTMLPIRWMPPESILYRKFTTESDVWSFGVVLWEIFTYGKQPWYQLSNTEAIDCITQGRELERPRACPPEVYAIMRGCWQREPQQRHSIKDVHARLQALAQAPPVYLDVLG
From the text: as §1

[1] = target: T7, Ba/F3 EML4-ALK L1196M cells (Homo sapiens, UniProt Q9UM73, L1196M); assay: Cell viability assay (CellTiter-Glo, 72 hr); format: cell-based
T7 construct: expressed in transfected cells; host or cells: Ba/F3; the other entry of the earlier key: EML4 (Q9HC35, Echinoderm microtubule-associated protein-like 4)
Procedure: (§2) Parental Ba/F3 cells were cultured with an additional 1 ng/mL recombinant mouse IL-3 (ProSpec). […] Cell viability was evaluated using the CellTiter-Glo® Luminescent Cell Viability Assay (Promega) following the manufacturer's standards. […] Anti-proliferative best fit IC50 values were calculated by Graphpad Prism 7 software.

[2] = target: T8, Ba/F3 EML4-ALK G1202R cells (Homo sapiens, UniProt Q9UM73, G1202R); assay: Cell viability assay (CellTiter-Glo, 72 hr); format: cell-based
T8 construct: expressed in transfected cells; host or cells: Ba/F3; the other entry of the earlier key: EML4 (Q9HC35, Echinoderm microtubule-associated protein-like 4)
Procedure: as §2

[3] = target: T9, Ba/F3 EML4-ALK C1156Y cells (Homo sapiens, UniProt Q9UM73, C1156Y); assay: Cell viability assay (CellTiter-Glo, 72 hr); format: cell-based
T9 construct: expressed in transfected cells; host or cells: Ba/F3; the other entry of the earlier key: EML4 (Q9HC35, Echinoderm microtubule-associated protein-like 4)
Procedure: as §2

Ba/F3 EML4-ALK cells = target: T10, Ba/F3 EML4-ALK cells (Homo sapiens, UniProt Q9UM73); assay: Cell viability assay (CellTiter-Glo, 72 hr); format: cell-based
T10 construct: expressed in transfected cells; host or cells: Ba/F3; the other entry of the earlier key: EML4 (Q9HC35, Echinoderm microtubule-associated protein-like 4)
Procedure: as §2

CD74-NTRK1 Ba/F3 cells = target: T11, CD74-NTRK1 Ba/F3 cells (Homo sapiens, UniProt P04629); assay: Cell viability assay (CellTiter-Glo, 72 hr); format: cell-based; conditions: for IC50: 72 hr
T11 construct: expressed in transfected cells; host or cells: Ba/F3; the other entry of the earlier key: CD74 (P04233, HLA class II histocompatibility antigen gamma chain)
T11 sequence (P04629 510-796 limits assumed): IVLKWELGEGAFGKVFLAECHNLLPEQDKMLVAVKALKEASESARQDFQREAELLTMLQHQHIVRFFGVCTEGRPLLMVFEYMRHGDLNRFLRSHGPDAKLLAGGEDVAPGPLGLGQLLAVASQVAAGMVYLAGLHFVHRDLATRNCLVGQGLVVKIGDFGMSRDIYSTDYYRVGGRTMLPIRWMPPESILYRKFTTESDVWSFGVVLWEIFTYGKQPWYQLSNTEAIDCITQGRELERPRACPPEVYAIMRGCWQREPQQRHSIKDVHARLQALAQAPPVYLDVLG
Procedure: as §2

Parental WT Ba/F3 cells = assay: Cell viability assay (CellTiter-Glo, 72 hr); format: cell-based; conditions: for IC50: Mus musculus, BaF3, 72 hr
Procedure: (§3) Ba/F3 cell lines were cultured in RPMI-1640 media containing L-glutamine, supplemented with 10% fetal bovine serum (FBS) and 1% penicillin/streptomycin. Parental Ba/F3 cells were cultured with an additional 1 ng/mL recombinant mouse IL-3 (ProSpec). Mycoplasma testing was performed on a monthly basis and all lines were negative. Cell viability was evaluated using the CellTiter-Glo® Luminescent Cell Viability Assay (Promega) following the manufacturer's standards. 12-point dose titrations were tested in triplicate from 10000 nM to 0.056 nM over 72 hr. Anti-proliferative best fit IC50 values were calculated by Graphpad Prism 7 software.
The experimental protocol was as in Example 11.

[4] = test system: Ba/F3 cell lines expressing EML4-ALK and EML4-ALK with secondary mutations; assay: Anti-proliferation assay in EML4-ALK Ba/F3 cell lines; format: cell-based
Procedure: as §3

[5] = test system: tel-TRK fusion Ba/F3 cell lines; assay: IC50 in TEL-TRK Ba/F3 cells; format: cell-based; conditions: all 3 tel-TRK fusion Ba/F3 cell lines; FIG. 5
From the text: The IC50 values were generated using ACD/Labs GraphPad Prism (version 7).

[6] = test system: ALK wild type, ALK mutants, TRKA, TRKB, TRKC and ROS1; assay: AMBIT profile, DiscoverX KINOMEscan Assay platform; format: binding; conditions: for Ambit profile potency and selectivity: Example 10, FIG. 7A and 7B
From the text: The AMBIT data were generated using DiscoverX KINOMEscan® Assay platform.
The experimental protocol was as in Example 9.

Row | SMILES | IC50 (ALK) [nM] | IC50 (TRK3) [nM] | IC50 (TRK2) [nM] | IC50 (ALK L1196M) [nM] | IC50 (ROS1) [nM] | IC50 (TRK1) [nM] | potency (IC50) relative to entrectinib in tel-TRK fusion Ba/F3 cell lines [5] | IC50 [1] [nM] | IC50 [2] [nM] | IC50 [3] [nM] | IC50 (Ba/F3 EML4-ALK cells) [nM] | IC50 (CD74-NTRK1 Ba/F3 cells) [nM] | activity relative to entrectinib in CD74-NTRK1 expressing Ba/F3 cells (CD74-NTRK1 Ba/F3 cells; in words) | IC50 (Parental WT Ba/F3 cells) [nM] | non-specific activity in parental Ba/F3 cells, compared in words (Parental WT Ba/F3 cells) | anti-proliferative activity relative to lorlatinib ([4]; Example 11, FIG. 1) | activity relative to lorlatinib and JH-XIII-157-2 ([4]; Example 12, FIG. 2A-2D, Tables 2-5) | Ambit profile selectivity (percent activity remaining) ([6]; Example 9, FIG. 6) | Ambit profile potency and selectivity [6]
1 | COc1c2c(nn1C)CN(C)C(=O)c1ccc(F)cc1[C@H]1CCCN1c1cc-2cnc1N [Compound I-1b, (R)-26-amino-45-fluoro-15-methoxy-11,6-dimethyl-11H-6-aza-2(3,5)-pyridina-1(4,3)-pyrazola-3(1,2)-pyrrolidina-4(1,3)-benzenacycloheptaphan-5-one] | 9 | 0.7 | 0.9 | 20 | 0.9 | 4 | – | – | – | – | – | – | – | – | – | – | – | – | very potent and selective for ALK, TRKA, TRKB, and TRKC
2 | CN1Cc2nn(C)c(C#N)c2-c2cnc(N)c(c2)N2CCC[C@@H]2c2cc(F)ccc2C1=O [Compound I-1d, (R)-2^6-amino-4^5-fluoro-1,6-dimethyl-5-oxo-1^1H-6-aza-2(3,5)-pyridina-1(4,3)-pyrazola-3(1,2)-pyrrolidina-4(1,3)-benzenacycloheptaphane-15-carbonitrile] | 7 | 2 | 5 | 3 | 1 | 6 | – | – | – | – | – | – | – | – | – | – | – | – | very potent and selective for ALK, TRKA, TRKB, and TRKC
3 | Cn1cc2c(n1)CN(C1CC1)C(=O)c1ccc(F)cc1[C@H]1CCCN1c1cc-2cnc1N [Compound I-1e, (R)-2^6-amino-6-cyclopropyl-4^5-fluoro-1^1-methyl-1^1H-6-aza-2(3,5)-pyridina-1(4,3)-pyrazola-3(1,2)-pyrrolidina-4(1,3)-benzenacycloheptaphan-5-one] | 6 | 0.7 | 0.7 | 6 | 0.7 | 2 | – | – | – | – | – | – | – | – | – | – | – | – | –
4 | CN1CCN(c2ccc(C(=O)Nc3n[nH]c4ccc(Cc5cc(F)cc(F)c5)cc34)c(NC3CCOCC3)c2)CC1 [Entrectinib] | – | – | – | – | – | – | – | – | – | – | – | – | – | 2020 | more active than compound I-1a | – | – | – | –
5 | C[C@H]1Oc2cc(cnc2N)-c2c(nn(C)c2C#N)CN(C)C(=O)c2ccc(F)cc21 [Lorlatinib, reference compound] | – | – | – | – | – | – | – | – | – | – | – | 66.9 | – | 18900 | – | – | – | – | –

The remaining molecules from weak to strong by IC50 (ALK), led by results:

Row | IC50 (ALK) [nM] | IC50 (TRK3) [nM] | IC50 (TRK2) [nM] | IC50 (ALK L1196M) [nM] | IC50 (ROS1) [nM] | IC50 (TRK1) [nM] | potency (IC50) relative to entrectinib in tel-TRK fusion Ba/F3 cell lines [5] | SMILES | IC50 [1] [nM] | IC50 [2] [nM] | IC50 [3] [nM] | IC50 (Ba/F3 EML4-ALK cells) [nM] | IC50 (CD74-NTRK1 Ba/F3 cells) [nM] | activity relative to entrectinib in CD74-NTRK1 expressing Ba/F3 cells (CD74-NTRK1 Ba/F3 cells; in words) | IC50 (Parental WT Ba/F3 cells) [nM] | non-specific activity in parental Ba/F3 cells, compared in words (Parental WT Ba/F3 cells) | anti-proliferative activity relative to lorlatinib ([4]; Example 11, FIG. 1) | activity relative to lorlatinib and JH-XIII-157-2 ([4]; Example 12, FIG. 2A-2D, Tables 2-5) | Ambit profile selectivity (percent activity remaining) ([6]; Example 9, FIG. 6) | Ambit profile potency and selectivity [6]
6 | 12 | 0.7 | 0.5 | 6 | 1.3 | 3 | more potent than entrectinib | CN1Cc2nn(C)cc2-c2cnc(N)c(c2)N2CCC[C@@H]2c2cc(F)ccc2C1=O [Compound I-1a, (R)-26-amino-45-fluoro-11,6-dimethyl-11H-6-aza-2(3,5)-pyridina-1(4,3)-pyrazola-3(1,2)-pyrrolidina-4(1,3)-benzenacycloheptaphan-5-one] | 144 | 1220 | 151 | 23.4 | 0.13 | entrectinib like activity | 19000 | less non-specific activity than entrectinib | lower activity | lower activity | quite selective toward ALK wild type, ALK mutants as well as TRKA, TRKB, TRKC and ROS1 | very potent and selective for ALK, TRKA, TRKB, and TRKC
7 | 5 | 0.5 | < 0.5 | 3 | 0.6 | 1 | – | Cc1c2c(nn1C)CN(C)C(=O)c1ccc(F)cc1[C@H]1CCCN1c1cc-2cnc1N [Compound I-1c, (R)-2^6-amino-4^5-fluoro-1^1,1^5,6-trimethyl-1^1H-6-aza-2(3,5)-pyridina-1(4,3)-pyrazola-3(1,2)-pyrrolidina-4(1,3)-benzenacycloheptaphan-5-one] | – | – | – | – | – | – | – | – | – | – | – | very potent and selective for ALK, TRKA, TRKB, and TRKC
